Experimental data reported in US7553881B2, “Dental materials based on radically polymerizable macromers with antimicrobial effect” (Ivoclar Vivadent AG, priority 2006, dated 2009).

Tested on: Staphylococcus aureus
Experiment: Antimicrobial examination of photopolymerized, washed adhesive films on slides
Format: cell-based
Conditions: adhesive with 5 wt.-% MDPB, film washed two days with water
Experimental: The above adhesives were applied to a slide and photopolymerized using a UV lamp.
In a Petri dish, a modified slide was covered with 30 ml of a Staphylococcus aureus suspension in PBS (→10^7 bacteria cells/ml) and then incubated accompanied by light shaking (50 rpm) for 1 h at 37° C. The bacterial suspension was then drawn off and the slide was washed with pure PBS (15+15 ml). The slide was then dried, transferred to a new Petri dish, covered with 30 ml 1.5% nutrient agar and then incubated at 37° C. A blind sample was then analogously tested in each case using a slide which was coated with adhesive without biocidal macromer.
The mixture was applied to a slide and photopolymerized with the help of a UV lamp. […] A slide which had been coated with adhesive without the biocidal monomer MDPH served as comparison.

`C=C(C)C(=O)OCCCCCCCCCCCC[n+]1ccccc1.[Br-]` [MDPB, 12-methacryloyloxydodecylpyridinium bromide] was tested, and the “bacterial growth on slide coated with polymerized adhesive” value was “no bacterial decay attack on the film itself” and the “bacterial growth on slide coated with polymerized adhesive” value (listed as MDPH) was “no bacterial attack”.
